Experimental data as given in ChEMBL document CHEMBL1629473, “Convenient synthesis and biological profile of 5-amino-substituted 1,2,4-oxadiazole derivatives” (Eur J Med Chem, 2010).

Experiments:
[1] = tested on: Rattus norvegicus; test: Antiinflammatory activity in Fisher 344 rat assessed as inhibition of carrageenan-induced paw edema at 0.01 mmol/kg, ip measured 3.5 hrs after carrageenan challenge relative to control; type: functional; set-up: scale not given: the % may be the effect or the level left
[2] = molecular target: Lipoxygenase (Glycine max) (UniProt Q39829); test: Inhibition of soybean lipoxygenase at 100 uM by UV spectrophotometry; set-up: scale not given: the % may be the effect or the level left
[3] = Induction of NO release in phosphate buffer pH 7.4 containing 1 mM L-cysteine assessed as nitrite level at 100 uM after 60 mins by Griess assay; type: physicochemical; conditions: pH 7.4, 1 h
[4] = Induction of NO release in phosphate buffer pH 7.4 containing 5 mM L-cysteine assessed as nitrite level at 100 uM after 60 mins by Griess assay; type: physicochemical; conditions: pH 7.4, 1 h
[5] = tested on: Radical scavenging activity; test: Antioxidant activity assessed as DPPH free radical scavenging activity at 50 uM after 20 mins; type: functional
[6] = tested on: Radical scavenging activity; test: Antioxidant activity assessed as DPPH free radical scavenging activity at 100 uM after 20 mins; type: functional
[7] = tested on: Radical scavenging activity; test: Antioxidant activity assessed as DPPH free radical scavenging activity at 50 uM after 60 mins; type: functional
[8] = tested on: Radical scavenging activity; test: Antioxidant activity assessed as DPPH free radical scavenging activity at 100 uM after 60 mins; type: functional
[9] = Induction of NO release in phosphate buffer pH 7.4 containing 0.5 mM thiophenol assessed as nitrite level at 100 uM after 60 mins by Griess assay; type: physicochemical; conditions: pH 7.4, 1 h
[10] = Induction of NO release in phosphate buffer pH 7.4 containing 0.5 mM L-cysteine assessed as nitrite level at 100 uM after 60 mins by Griess assay; type: physicochemical; conditions: pH 7.4, 1 h

Question: Which Activity [1] does the source give for `COc1ccc2c(c1)c(CC(=O)O)c(C)n2C(=O)c1ccc(Cl)cc1` [INDOMETHACIN] here?
Answer: 47%

Question: Which Activity [2] does the source give for `O=[N+]([O-])c1ccc(-c2noc(NC3CCCCC3)n2)cc1` here?
Answer: > 5%

Question: Which Activity [3] does the source give for `COc1ccc(-c2noc(NC3CCCCC3)n2)cc1` here?
Answer: 2%

Question: What about the Activity [4] of the same compound?
Answer: 14%

Question: Which Activity [5] does the source give for `Cc1ccc(/C(N)=N/O)cc1` here?
Answer: 15%

Question: What about the Activity [6] of the same compound?
Answer: 21%

Question: What about the Activity [7] of the same compound?
Answer: 14%

Question: What about the Activity [8] of the same compound?
Answer: 26%

Question: And the Activity [1]?
Answer: 41%

Question: What about the Activity [4] of the same compound?
Answer: 8%

Question: Which results are given for `N/C(Cc1ccc(Cl)cc1)=N\O`?
Answer: Activity [8]: 16%; Activity [2]: 19%; Activity [1]: 47%

Question: What does the source list for `CC(=O)N(c1nc(-c2cccc([N+](=O)[O-])c2)no1)C(C)C`?
Answer: Activity [6]: 3%; Activity [8]: 4%; Activity [9]: 55%

Question: Which Activity [5] does the source give for `N/C(=N\O)c1ccccc1` here?
Answer: 8%

Question: What about the Activity [6] of the same compound?
Answer: 19%

Question: And the Activity [8]?
Answer: 30%

Question: With `NC(Cc1ccc(Cl)cc1)=NO` as the compound, how does the Activity [9] read?
Answer: 3%

Question: What does the source list for `NC(=NO)c1ccccc1` [BENZAMIDOXIME]?
Answer: Activity [10]: 2%; Activity [9]: 6%

Question: Which Activity [6] does the source give for `N/C(=N\O)c1cccc([N+](=O)[O-])c1` here?
Answer: 7%

Question: What about the Activity [8] of the same compound?
Answer: 15%

Question: What about the Activity [2] of the same compound?
Answer: 32%

Question: And the Activity [1]?
Answer: 26%

Question: Which Activity [6] does the source give for `CC(C)Nc1nc(-c2cccc([N+](=O)[O-])c2)no1` here?
Answer: 6%

Question: And the Activity [8]?
Answer: 8%

Question: And the Activity [2]?
Answer: 88%

Question: And the Activity [9]?
Answer: 7%

Question: What does the source list for `c1ccc(Cc2noc(NC3CCCCC3)n2)cc1`?
Answer: Activity [6]: 9%; Activity [8]: 9%; Activity [9]: 7.5%

Question: Which Activity [1] does the source give for `Cc1ccc(-c2noc(NC3CCCCC3)n2)cc1` here?
Answer: 33%

Question: Which results are given for `CC(=O)N(c1nc(Cc2ccc(Cl)cc2)no1)C1CCCCC1`?
Answer: Activity [6]: 2%; Activity [8]: 5%; Activity [3]: 18%; Activity [4]: 12%; Activity [10]: 27.5%; Activity [9]: 39%

Question: What does the source list for `O=[N+]([O-])c1cccc(-c2noc(NC3CCCCC3)n2)c1`?
Answer: Activity [6]: 11%; Activity [8]: 11%; Activity [2]: 74%; Activity [1]: 40%; Activity [4]: 3%; Activity [9]: 3%

Question: Which Activity [6] does the source give for `CC(=O)N(c1nc(-c2cccc([N+](=O)[O-])c2)no1)C1CCCCC1` here?
Answer: 1%

Question: And the Activity [8]?
Answer: 2%

Question: And the Activity [3]?
Answer: 33%

Question: And the Activity [4]?
Answer: 33%

Question: What about the Activity [10] of the same compound?
Answer: 42.5%

Question: And the Activity [9]?
Answer: 71%

Question: With `O=[N+]([O-])c1ccc(Cc2noc(NC3CCCCC3)n2)cc1` as the compound, how does the Activity [6] read?
Answer: 7%

Question: What about the Activity [8] of the same compound?
Answer: 7%

Question: For `CC(Cc1ccc(O)c(O)c1)C(C)Cc1ccc(O)c(O)c1` (configuration not stated), which Activity [5] is on record?
Answer: 77%

Question: And the Activity [6]?
Answer: 84%

Question: And the Activity [7]?
Answer: 81%

Question: What about the Activity [8] of the same compound?
Answer: 91%

Question: And the Activity [2]?
Answer: 83.7%

Question: Which Activity [6] does the source give for `CC(=O)N(c1nc(-c2ccc([N+](=O)[O-])cc2)no1)C1CCCCC1` here?
Answer: 3%

Question: And the Activity [8]?
Answer: 4%

Question: What about the Activity [3] of the same compound?
Answer: 8%

Question: And the Activity [4]?
Answer: 8%

Question: And the Activity [10]?
Answer: 12%

Question: What about the Activity [9] of the same compound?
Answer: 47%

Question: For `Clc1ccc(Cc2noc(NC3CCCCC3)n2)cc1`, which Activity [6] is on record?
Answer: 7%

Question: And the Activity [8]?
Answer: 7%

Question: Which Activity [6] does the source give for `N/C(=N\O)c1ccc([N+](=O)[O-])cc1` here?
Answer: 9%

Question: And the Activity [8]?
Answer: 18%

Question: And the Activity [2]?
Answer: 24%

Question: Which Activity [6] does the source give for `CC(C)Nc1nc(C2CCCCC2)no1` here?
Answer: 8%

Question: And the Activity [8]?
Answer: 11%

Question: Which Activity [6] does the source give for `CC(C)Nc1nc(Cc2ccc(Cl)cc2)no1` here?
Answer: 8%

Question: And the Activity [8]?
Answer: 11%

Question: And the Activity [1]?
Answer: 43%

Question: And the Activity [4]?
Answer: 2%

Question: And the Activity [9]?
Answer: 4%

Question: With `CCNc1nc(-c2ccc([N+](=O)[O-])cc2)no1` as the compound, how does the Activity [8] read?
Answer: 9%

Question: With `NC(=NO)c1cccc([N+](=O)[O-])c1` as the compound, how does the Activity [4] read?
Answer: 4%

Question: For `CCCc1noc(NC(C)C)n1`, which Activity [6] is on record?
Answer: 7%

Question: And the Activity [8]?
Answer: 7%

Question: Which Activity [6] does the source give for `CN(C)CCCNc1nc(-c2ccc([N+](=O)[O-])cc2)no1` here?
Answer: 6%

Question: And the Activity [8]?
Answer: 4%

Question: And the Activity [2]?
Answer: 67%

Question: And the Activity [10]?
Answer: 7%

Question: And the Activity [9]?
Answer: 24%

Question: Which Activity [6] does the source give for `Cc1ccc(-c2noc(NCCCN(C)C)n2)cc1` here?
Answer: 6%

Question: What about the Activity [8] of the same compound?
Answer: 8%

Question: What about the Activity [10] of the same compound?
Answer: 7.5%

Question: And the Activity [9]?
Answer: 21%

Question: With `c1ccc(-c2noc(NC3CCCCC3)n2)cc1` as the compound, how does the Activity [2] read?
Answer: 38%

Question: What about the Activity [1] of the same compound?
Answer: 51%

Question: And the Activity [3]?
Answer: 2%

Question: And the Activity [4]?
Answer: 19%

Question: What about the Activity [10] of the same compound?
Answer: 4%

Question: Which Activity [8] does the source give for `Cc1ccc(-c2noc(NC(C)C)n2)cc1` here?
Answer: 18%

Question: With `CC(=O)N(c1nc(-c2ccc(C)cc2)no1)C1CCCCC1` as the compound, how does the Activity [6] read?
Answer: 3%

Question: What about the Activity [8] of the same compound?
Answer: 3%

Question: And the Activity [2]?
Answer: 25.5%

Question: With `COc1ccc(C(=N)NO)cc1` as the compound, how does the Activity [5] read?
Answer: 35%

Question: What about the Activity [6] of the same compound?
Answer: 57%

Question: What about the Activity [7] of the same compound?
Answer: 44%

Question: And the Activity [8]?
Answer: 57%

Question: What about the Activity [1] of the same compound?
Answer: 45%

Question: And the Activity [3]?
Answer: 5%

Question: What about the Activity [4] of the same compound?
Answer: 4%

Question: And the Activity [10]?
Answer: 4%
